The source of these data is ChEMBL document CHEMBL1201862, “PubChem BioAssay data set” (2004).

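Briefly, cells in 96-well plates were exposed to five compound concentrations for 48 h, and endpoints were estimated by linear interpolation. GI50 = concentration required for 50% inhibition of growth.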 Calls of active or inactive are those of the source. Rule as the data show it: active = GI50 up to about 1.1 µM and inactive = higher. Where only a bound is given, the exact number is not on record here.

Test systems include SR; HCT-116; EKVX; COLO 205; UACC-62; BT-549; Hs-578T; HOP-92; NCI-H23; NCI/ADR-RES; Malme-3M; HL-60; HOP-62; PC-3; OVCAR-4; NCI-H226; ACHN; NCI-H460; SW-620.
Holding throughout (assay): NCI anticancer screen, dose series, 48 h

For `O=C1/C(=C\Oc2ccc(F)cc2)N2CCC1CC2`, the GI50 in the test with SR was 16.4 µM (inactive); in the test on HCT-116, 34.8 µM (inactive); in the test with EKVX, 55.5 µM (inactive); with COLO 205 it was > 100 µM (inactive); in the test with UACC-62, 25.9 µM (inactive); with BT-549, 55 µM (inactive). Also, the GI50 with Hs-578T is 28.7 µM (inactive); in the test on HOP-92, 41.4 µM (inactive); with NCI-H23, 54.5 µM (inactive); in the test with NCI/ADR-RES it was 46.2 µM (inactive); in the test on Malme-3M it was 33.3 µM (inactive); with HL-60, 35.2 µM (inactive). Besides, the GI50 was > 100 µM (inactive) in the test with HOP-62; > 100 µM (inactive) in the test on PC-3; 46.8 µM (inactive) with OVCAR-4; 35.5 µM (inactive) in the test on NCI-H226; 76.2 µM (inactive) in the test on ACHN.

For `C/C(=N\NC(=S)NCCNC(=S)N/N=C(\C)c1ccccn1)c1ccccn1`, the GI50 in the test with SR is 0.514 µM (active); in the test with HCT-116 it was 2.75 µM (inactive); in the test on EKVX, 4.83 µM (inactive); with COLO 205 it was 2.09 µM (inactive); in the test on UACC-62, 2.62 µM (inactive); with BT-549, 2.36 µM (inactive). Also, the GI50 in the test on Hs-578T was > 73.1 µM (inactive); in the test on HOP-92 it was 3.91 µM (inactive); in the test with NCI-H23, 4.41 µM (inactive); in the test on NCI-H460 it was 1.61 µM (inactive); in the test on NCI/ADR-RES it was 1.92 µM (inactive); with Malme-3M, 2.54 µM (inactive). Moreover, the GI50 in the test with HL-60 is 0.789 µM (active); in the test with HOP-62, 1.83 µM (inactive); in the test with PC-3 it was 3.07 µM (inactive); with SW-620, 5.04 µM (inactive); with OVCAR-4, 2.9 µM (inactive); with ACHN it was 1.26 µM (inactive).

With `COc1cc(C(=O)N(C(=S)OCc2ccccn2)c2ccccc2)cc(OC)c1OC`, the GI50 is 8.47 µM (inactive) with SR; 44.1 µM (inactive) with HCT-116; 12.9 µM (inactive) in the test with EKVX; 53.5 µM (inactive) in the test with COLO 205; 56.4 µM (inactive) in the test on UACC-62; 41 µM (inactive) in the test with BT-549. The GI50 in the test with Hs-578T is 53.7 µM (inactive); with NCI-H23, 86.1 µM (inactive); in the test on NCI-H460, 35.6 µM (inactive); in the test on NCI/ADR-RES, 39.4 µM (inactive); in the test with Malme-3M it was 8.22 µM (inactive); with HL-60 it was 27 µM (inactive). For the same compound, the GI50 was 74.3 µM (inactive) in the test on PC-3, 59.7 µM (inactive) with SW-620, 26.1 µM (inactive) with NCI-H226 and 42.3 µM (inactive) in the test on ACHN.

Take `CC(C)[C@H]1NC(=O)[C@H]2N=C(O[C@@H]2C)[C@@H]2CCCN2C(=O)[C@H](Cc2ccccc2)NC(=O)[C@@H]2CSC(=N2)[C@@H](Cc2ccccc2)NC(=O)[C@@H]2CSC1=N2`: the GI50 with SR is > 100 µM (inactive); with HCT-116 it was 90.8 µM (inactive); with EKVX, > 100 µM (inactive); with COLO 205 it was > 100 µM (inactive); in the test with UACC-62 it was 50 µM (inactive); in the test on BT-549 it was > 100 µM (inactive). The GI50 was > 100 µM (inactive) with Hs-578T; > 100 µM (inactive) in the test on NCI-H23; 86.5 µM (inactive) in the test with NCI/ADR-RES; > 100 µM (inactive) in the test on Malme-3M; > 100 µM (inactive) in the test with HL-60; > 100 µM (inactive) in the test with HOP-62. Further, the GI50 was 37.5 µM (inactive) with PC-3; 86.5 µM (inactive) in the test with SW-620; 38.2 µM (inactive) in the test with OVCAR-4; > 100 µM (inactive) with NCI-H226; > 100 µM (inactive) in the test on ACHN.

Regarding `CCOC(=O)/C(=N\Nc1ccc(-n2c(C)nc3ccccc3c2=O)cc1)C(C)=O`, the GI50 in the test on SR was 33.3 µM (inactive); in the test on HCT-116, 36 µM (inactive); with EKVX it was 25.6 µM (inactive); in the test on COLO 205, 39.9 µM (inactive); with UACC-62, 29.8 µM (inactive); in the test on BT-549, 33.3 µM (inactive). Besides, the GI50 with Hs-578T was 20.7 µM (inactive); in the test with HOP-92 it was 11.9 µM (inactive); in the test on NCI-H23 it was 50.5 µM (inactive); with NCI-H460, 92.9 µM (inactive); with NCI/ADR-RES it was 18.1 µM (inactive); in the test with HL-60, 14 µM (inactive). The GI50 in the test with HOP-62 was 40.2 µM (inactive); in the test with PC-3, 34.8 µM (inactive); with SW-620, 61.5 µM (inactive); in the test on NCI-H226, 18.7 µM (inactive); in the test with ACHN it was 32.4 µM (inactive).

As for `N#Cc1c(-c2ccccc2)cc(Nc2ccc(Cl)cc2)n2c1nc1ccccc12`, the GI50 was 2.73 µM (inactive) in the test with SR; 1.96 µM (inactive) with HCT-116; 1.52 µM (inactive) in the test with EKVX; 1.74 µM (inactive) in the test on COLO 205; 0.975 µM (active) in the test with UACC-62; 4.59 µM (inactive) with BT-549. In addition, the GI50 is 1.59 µM (inactive) in the test with Hs-578T; 0.397 µM (active) with HOP-92; 2.64 µM (inactive) in the test on NCI-H23; 1.67 µM (inactive) in the test on NCI-H460; 2.44 µM (inactive) with NCI/ADR-RES; 5.16 µM (inactive) in the test on Malme-3M. The GI50 is 3.67 µM (inactive) in the test with HOP-62; 2.56 µM (inactive) in the test on PC-3; 4.84 µM (inactive) in the test with SW-620; 3.23 µM (inactive) in the test with OVCAR-4; 4.45 µM (inactive) in the test on NCI-H226; 3.03 µM (inactive) in the test on ACHN.

As to `CN(C)c1ccc(/C=c2/c3ccccc3n3c2cc(NC(=O)NCCC[N+](C)(C)C)[n+]3C)cc1`, the GI50 in the test with SR is 75.9 µM (inactive); in the test on HCT-116 it was > 100 µM (inactive); in the test on EKVX, > 100 µM (inactive); with COLO 205, > 100 µM (inactive); in the test on UACC-62, > 100 µM (inactive); in the test with BT-549, > 100 µM (inactive). Further, the GI50 is > 100 µM (inactive) in the test with Hs-578T; 30.6 µM (inactive) in the test with HOP-92; > 100 µM (inactive) with NCI-H23; > 100 µM (inactive) in the test on NCI-H460; > 100 µM (inactive) in the test on NCI/ADR-RES; > 100 µM (inactive) with Malme-3M. For the same compound, the GI50 was 42.9 µM (inactive) in the test on HL-60; > 100 µM (inactive) with HOP-62; > 100 µM (inactive) with PC-3; > 100 µM (inactive) in the test with SW-620; 22.2 µM (inactive) in the test with OVCAR-4; > 100 µM (inactive) with ACHN.

Consider `Nc1nc(=O)n(C2CC(O)C(CO)O2)c2nc(-c3ccc(-c4ccccc4)cc3)cnc12` (stereo not drawn), for which the GI50 was 27.7 µM (inactive) with SR; > 100 µM (inactive) in the test on HCT-116; 96.4 µM (inactive) with EKVX; > 100 µM (inactive) in the test on COLO 205; 25.3 µM (inactive) in the test with UACC-62; > 100 µM (inactive) in the test on BT-549. The GI50 in the test on Hs-578T was 36.3 µM (inactive); in the test on HOP-92 it was 56.2 µM (inactive); in the test on NCI-H23, 99.3 µM (inactive); with NCI-H460, > 100 µM (inactive); with NCI/ADR-RES, > 100 µM (inactive); in the test on Malme-3M, 41.7 µM (inactive). The GI50 with HOP-62 was 27.2 µM (inactive); in the test on PC-3 it was 37.6 µM (inactive); in the test on SW-620 it was > 100 µM (inactive); in the test with OVCAR-4, > 100 µM (inactive); in the test on NCI-H226, 25.6 µM (inactive); in the test with ACHN, > 100 µM (inactive).

Regarding `Clc1ccc(-c2ccc(-c3nnc(CCc4nnc(-c5ccc(-c6ccc(Cl)cc6)o5)o4)o3)o2)cc1`, the GI50 in the test on SR was 0.276 µM (active); in the test with HCT-116 it was > 100 µM (inactive); with EKVX, > 85.3 µM (inactive); in the test with COLO 205, > 100 µM (inactive); with UACC-62 it was > 100 µM (inactive); in the test on BT-549, > 100 µM (inactive). Also, the GI50 with Hs-578T was 14.8 µM (inactive); in the test on HOP-92, > 27.5 µM (inactive); in the test with NCI-H23, > 60.5 µM (inactive); with NCI-H460 it was > 100 µM (inactive); in the test with NCI/ADR-RES, > 100 µM (inactive); in the test with HL-60, 4.81 µM (inactive). Moreover, the GI50 in the test with HOP-62 is > 50.8 µM (inactive); in the test on PC-3 it was > 100 µM (inactive); in the test on SW-620, > 95.7 µM (inactive); in the test with OVCAR-4, > 100 µM (inactive); with NCI-H226 it was > 61.7 µM (inactive); in the test with ACHN, > 55.6 µM (inactive).

As for `CC(=O)Oc1ccc2c3c1[C@H]1O[C@H]1c1cccc(c1-3)[C@@H]1O[C@H]21`, the GI50 was 10.9 µM (inactive) in the test with SR; 11.2 µM (inactive) with HCT-116; 16.5 µM (inactive) with EKVX; 10.4 µM (inactive) in the test on COLO 205; 8 µM (inactive) with UACC-62; 8.97 µM (inactive) with BT-549. For the same compound, the GI50 in the test on Hs-578T was 5.58 µM (inactive); with HOP-92, 9.68 µM (inactive); in the test on NCI-H23 it was 4.92 µM (inactive); with NCI/ADR-RES, 10 µM (inactive); with Malme-3M it was 2.72 µM (inactive); in the test with HL-60, 1.82 µM (inactive). Also, the GI50 was 5.19 µM (inactive) in the test on HOP-62; 13.5 µM (inactive) with PC-3; 2.09 µM (inactive) in the test with SW-620; 7.23 µM (inactive) with OVCAR-4; 21.4 µM (inactive) in the test with NCI-H226; 18.3 µM (inactive) in the test on ACHN.

Regarding `Cc1cc(=O)oc2c(C)c3oc(CBr)cc3cc12`, the GI50 was 33 µM (inactive) in the test on SR; 18.5 µM (inactive) in the test on HCT-116; 26.4 µM (inactive) with EKVX; 18.4 µM (inactive) in the test with COLO 205; 18.5 µM (inactive) in the test with UACC-62; 15.3 µM (inactive) in the test on BT-549. Further, the GI50 with Hs-578T is 35.6 µM (inactive); with NCI-H23 it was 18.3 µM (inactive); in the test on NCI-H460 it was 17.2 µM (inactive); in the test with NCI/ADR-RES, 19.4 µM (inactive); in the test with Malme-3M, 19.2 µM (inactive); in the test with HL-60 it was 18.3 µM (inactive). The GI50 with HOP-62 is 16.2 µM (inactive); with PC-3, 16.9 µM (inactive); with SW-620, 13.5 µM (inactive); with OVCAR-4 it was 25.8 µM (inactive); with NCI-H226, 15.5 µM (inactive); with ACHN, 15.8 µM (inactive).
